# According to patent US10597388B2, “Pyridazinone herbicides” (FMC CORPORATION, priority 2014, dated 2020):
# Legend:
# Type in all cases: in vivo
# [1] = tested on: oat, wild (wild oat, Avena fatua); assay: Test C greenhouse herbicide test, postemergence
# Procedure, shortened: (§1)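 Plants grown in potting mix of peat moss, vermiculite, wetting agent and starter nutrients were sprayed postemergence at 2 to 18 cm height (1- to 4-leaf stage). After 13 to 15 d in the greenhouse, injury was visually rated against untreated controls on a 0–100 scale (0 no effect, 100 complete control).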
# kochia (Kochia scoparia) = assay: Test C greenhouse herbicide test, postemergence
# Procedure, shortened: as §1
# [2] = tested on: blackgrass (Alopecurus myosuroides); assay: Test C greenhouse herbicide test, pre- and postemergence
# Text: (§2) Seeds of plant species selected from blackgrass (Alopecurus myosuroides), ryegrass, Italian (Italian ryegrass, Lolium multiflorum), wheat (winter wheat, Triticum aestivum), galium (catchweed bedstraw, Galium aparine), corn (Zea mays), large crabgrass, large (large crabgrass, Digitaria sanguinalis), foxtail, giant (giant foxtail, Setaria faberii), johnsongrass (Sorghum halepense), lambsquarters (Chenopodium album), morningglory (Ipomoea coccinea), nutsedge, yellow (yellow nutsedge, Cyperus esculentus), pigweed (Amaranthus retroflexus), ragweed (common ragweed, Ambrosia elatior), soybean (Glycine max), barnyardgrass (Echinochloa crus-galli), oilseed rape (Brassica napus), waterhemp (common waterhemp, Amaranthus rudis), and velvetleaf (Abutilon theophrasti) were planted into a blend of loam soil and sand and treated preemergence with test chemicals formulated in a non-phytotoxic solvent mixture which included a surfactant.
# (§3) At the same time, plants selected from these crop and weed species and also chickweed (common chickweed, Stellaria media), kochia (Kochia scoparia), and oat, wild (wild oat, Avena fatua), were planted in pots containing Redi-Earth® planting medium (Scotts Company, 14111 Scottslawn Road, Marysville, Ohio 43041) comprising spaghnum peat moss, vermiculite, wetting agent and starter nutrients and treated with postemergence applications of test chemicals formulated in the same manner. Plants ranged in height from 2 to 18 cm (1- to 4-leaf stage) for postemergence treatments. Treated plants and controls were maintained in a greenhouse for 13 to 15 d, after which time all species were compared to controls and visually evaluated. Plant response ratings, summarized in Table C, are based on a scale of 0 to 100 where 0 is no effect and 100 is complete control. A dash (-) response means no test result.
# [3] = tested on: oilseed rape (Brassica napus); assay: as above
# Text: as §2, §3
# [4] = tested on: crabgrass, large (large crabgrass, Digitaria sanguinalis); assay: as above
# Text: as §2, §3
# [5] = tested on: waterhemp (common waterhemp, Amaranthus rudis); assay: as above
# Text: as §2, §3
# corn (Zea mays) = assay: as above
# Text: as §2, §3
# [6] = tested on: johnsongrass (Sorghum halepense); assay: as above
# Text: as §2, §3
# [7] = tested on: foxtail, giant (giant foxtail, Setaria faberii); assay: as above
# Text: as §2, §3
# [8] = tested on: morningglory (Ipomoea coccinea); assay: as above
# Text: as §2, §3
# [9] = tested on: lambsquarters (Chenopodium album); assay: as above
# Text: as §2, §3
# [10] = tested on: pigweed (Amaranthus retroflexus); assay: as above
# Text: as §2, §3
# [11] = tested on: nutsedge, yellow (yellow nutsedge, Cyperus esculentus); assay: as above
# Text: as §2, §3
# [12] = tested on: wheat (winter wheat, Triticum aestivum); assay: as above
# Text: as §2, §3
# [13] = tested on: barnyardgrass (Echinochloa crus-galli); assay: as above
# Text: as §2, §3
# [14] = tested on: velvetleaf (Abutilon theophrasti); assay: as above
# Text: as §2, §3
# [15] = Postemergence, 31 g ai/ha, 0 to 100 scale (0 no effect, 100 complete control)
# [16] = Postemergence, 125 g ai/ha, scale 0 to 100, 0 is no effect, 100 is complete control
# [17] = Postemergence, 250 g ai/ha, scale 0 to 100, 0 no effect, 100 complete control, 13 to 15 d
# [18] = postemergence, 62 g ai/ha, scale 0 to 100, 0 no effect, 100 complete control
# [19] = Preemergence, 31 g ai/ha, scale 0 to 100, 0 is no effect, 100 is complete control
# [20] = Preemergence, 62 g ai/ha, scale 0 to 100, 0 is no effect, 100 is complete control
# [21] = Preemergence, 125 g ai/ha, scale 0 to 100, 0 is no effect, 100 is complete control
# [22] = Preemergence, 250 g ai/ha, scale 0 to 100 (0 no effect, 100 complete control)
smiles,measurement,setting,value
CC(=O)Oc1c(C)nn(C)c(=O)c1-c1c(C)sc2c(C)cc(C)cc12 [Compound 27],"Oat, Wild plant response rating",[1]; [15],85
same,"Plant response rating, Oat, Wild",[1]; [16],95
same,"Plant response rating, Oat, Wild",[1]; [17],100
same,"Oat, Wild plant response rating",[1]; [18],95
same,Kochia plant response rating,kochia (Kochia scoparia); [15],75
same,"Plant response rating, Kochia",kochia (Kochia scoparia); [16],90
same,"Plant response rating, Kochia",kochia (Kochia scoparia); [17],90
same,Kochia plant response rating,kochia (Kochia scoparia); [18],80
same,Blackgrass plant response rating,[2]; [15],50
same,"Plant response rating, Blackgrass",[2]; [16],85
same,"Plant response rating, Blackgrass",[2]; [17],90
same,"Plant response rating, Blackgrass",[2]; [19],85
same,"Plant response rating, Blackgrass",[2]; [20],90
same,"Plant response rating, Blackgrass",[2]; [21],90
same,Blackgrass plant response rating,[2]; [22],90
same,Blackgrass plant response rating,[2]; [18],70
same,Oilseed Rape plant response rating,[3]; [15],5
same,"Plant response rating, Oilseed Rape",[3]; [16],80
same,"Plant response rating, Oilseed Rape",[3]; [17],70
same,"Plant response rating, Oilseed Rape",[3]; [19],5
same,"Plant response rating, Oilseed Rape",[3]; [20],95
same,"Plant response rating, Oilseed Rape",[3]; [21],98
same,Oilseed Rape plant response rating,[3]; [22],98
same,Oilseed Rape plant response rating,[3]; [18],70
same,"Crabgrass, Large plant response rating",[4]; [15],5
same,"Plant response rating, Crabgrass, Large",[4]; [16],30
same,"Plant response rating, Crabgrass, Large",[4]; [17],45
same,"Plant response rating, Crabgrass, Large",[4]; [19],55
same,"Plant response rating, Crabgrass, Large",[4]; [20],80
same,"Plant response rating, Crabgrass, Large",[4]; [21],95
same,"Crabgrass, Large plant response rating",[4]; [22],98
same,"Crabgrass, Large plant response rating",[4]; [18],25
same,Waterhemp plant response rating,[5]; [15],65
same,"Plant response rating, Waterhemp",[5]; [16],10
same,"Plant response rating, Waterhemp",[5]; [17],90
same,"Plant response rating, Waterhemp",[5]; [20],85
same,"Plant response rating, Waterhemp",[5]; [21],100
same,Waterhemp plant response rating,[5]; [22],100
same,Waterhemp plant response rating,[5]; [18],60
same,Corn plant response rating,corn (Zea mays); [15],0
same,"Plant response rating, Corn",corn (Zea mays); [16],0
same,"Plant response rating, Corn",corn (Zea mays); [17],15
same,"Plant response rating, Corn",corn (Zea mays); [19],0
same,"Plant response rating, Corn",corn (Zea mays); [20],0
same,"Plant response rating, Corn",corn (Zea mays); [21],5
same,Corn plant response rating,corn (Zea mays); [22],0
same,Corn plant response rating,corn (Zea mays); [18],5
same,Johnsongrass plant response rating,[6]; [15],10
same,"Plant response rating, Johnsongrass",[6]; [17],10
same,"Plant response rating, Johnsongrass",[6]; [19],0
same,"Plant response rating, Johnsongrass",[6]; [20],5
same,"Plant response rating, Johnsongrass",[6]; [21],5
same,Johnsongrass plant response rating,[6]; [22],25
same,Johnsongrass plant response rating,[6]; [18],0
same,"Foxtail, Giant plant response rating",[7]; [15],60
same,"Plant response rating, Foxtail, Giant",[7]; [16],90
same,"Plant response rating, Foxtail, Giant",[7]; [17],95
same,"Plant response rating, Foxtail, Giant",[7]; [19],100
same,"Plant response rating, Foxtail, Giant",[7]; [20],100
same,"Plant response rating, Foxtail, Giant",[7]; [21],100
same,"Foxtail, Giant plant response rating",[7]; [22],100
same,"Foxtail, Giant plant response rating",[7]; [18],75
same,Morningglory plant response rating,[8]; [15],100
same,"Plant response rating, Morningglory",[8]; [16],100
same,"Plant response rating, Morningglory",[8]; [17],100
same,"Plant response rating, Morningglory",[8]; [19],85
same,"Plant response rating, Morningglory",[8]; [20],98
same,"Plant response rating, Morningglory",[8]; [21],100
same,Morningglory plant response rating,[8]; [22],100
same,Morningglory plant response rating,[8]; [18],100
same,Lambsquarters plant response rating,[9]; [15],85
same,"Plant response rating, Lambsquarters",[9]; [16],90
same,"Plant response rating, Lambsquarters",[9]; [17],98
same,"Plant response rating, Lambsquarters",[9]; [19],70
same,"Plant response rating, Lambsquarters",[9]; [20],95
same,"Plant response rating, Lambsquarters",[9]; [21],95
same,Lambsquarters plant response rating,[9]; [22],98
same,Lambsquarters plant response rating,[9]; [18],85
same,Pigweed plant response rating,[10]; [15],55
same,"Plant response rating, Pigweed",[10]; [16],85
same,"Plant response rating, Pigweed",[10]; [17],90
same,"Plant response rating, Pigweed",[10]; [19],98
same,"Plant response rating, Pigweed",[10]; [20],100
same,"Plant response rating, Pigweed",[10]; [21],98
same,Pigweed plant response rating,[10]; [22],100
same,Pigweed plant response rating,[10]; [18],80
same,"Nutsedge, Yellow plant response rating",[11]; [15],85
same,"Plant response rating, Nutsedge, Yellow",[11]; [17],95
same,"Plant response rating, Nutsedge, Yellow",[11]; [19],70
same,"Plant response rating, Nutsedge, Yellow",[11]; [20],90
same,"Plant response rating, Nutsedge, Yellow",[11]; [21],90
same,"Nutsedge, Yellow plant response rating",[11]; [22],95
same,"Nutsedge, Yellow plant response rating",[11]; [18],80
same,Wheat plant response rating,[12]; [15],0
same,"Plant response rating, Wheat",[12]; [16],5
same,"Plant response rating, Wheat",[12]; [17],5
same,"Plant response rating, Wheat",[12]; [20],0
same,"Plant response rating, Wheat",[12]; [21],0
same,Wheat plant response rating,[12]; [22],10
same,Wheat plant response rating,[12]; [18],0
same,Barnyardgrass plant response rating,[13]; [15],15
same,"Plant response rating, Barnyardgrass",[13]; [16],25
same,"Plant response rating, Barnyardgrass",[13]; [17],50
same,"Plant response rating, Barnyardgrass",[13]; [19],55
same,"Plant response rating, Barnyardgrass",[13]; [20],80
same,"Plant response rating, Barnyardgrass",[13]; [21],90
same,Barnyardgrass plant response rating,[13]; [22],90
same,Barnyardgrass plant response rating,[13]; [18],20
same,Velvetleaf plant response rating,[14]; [15],80
same,"Plant response rating, Velvetleaf",[14]; [16],90
same,"Plant response rating, Velvetleaf",[14]; [17],95
same,"Plant response rating, Velvetleaf",[14]; [20],85
same,"Plant response rating, Velvetleaf",[14]; [21],85
same,Velvetleaf plant response rating,[14]; [22],98
same,Velvetleaf plant response rating,[14]; [18],85
